For 13 compounds, activation, AC50 and Emax results are on record in patent publication US12122778B2, “Activating pyruvate kinase R” (Novo Nordisk Health Care AG, priority 2018, dated 2024).

The target in one assay is PKR(R510Q) (Homo sapiens, UniProt P30613, R510Q). In words: Luminescence Biochemical Assay (Kinase Glo Plus), PKR R510Q mutant. Particulars: without FBP; for activation at 1.54 µM: 1.54 μM compound, read-out: AC50 LUM KGP woFBP % Fold@1.54 μM mean; for AC50: read-out: AC50 LUM KGP woFBP AC50 μM gmean; for Emax: read-out: AC50 LUM KGP woFBP MAX % FOLD mean. How it is done: In some embodiments, a PKR Activating Compound can have: (1) an AC50 value of less than 0.1 μM (e.g., compounds with AC50 values of “+++” in Table 13), 0.1-1.0 μM (e.g., compounds with AC50 values of “++” in Table 13), or 1.01-40 μM (e.g., compounds with AC50 values of “+” in Table 13); (2) a MAX % Fold of 75%-250%, 250-500%, or 75%-500%; and/or (3) a % Fold@1.54 μM of 75%-250%, 250-500%, or 75%-500%. In some embodiments, a PKR Activating Compound has (1) an AC50 value of less than 1.0 μM; (2) a MAX % Fold of 75%-500%; and/or (3) a % Fold@1.54 μM of 75%-500%.
Chain of PKR(R510Q) (P30613 whole entry R510Q): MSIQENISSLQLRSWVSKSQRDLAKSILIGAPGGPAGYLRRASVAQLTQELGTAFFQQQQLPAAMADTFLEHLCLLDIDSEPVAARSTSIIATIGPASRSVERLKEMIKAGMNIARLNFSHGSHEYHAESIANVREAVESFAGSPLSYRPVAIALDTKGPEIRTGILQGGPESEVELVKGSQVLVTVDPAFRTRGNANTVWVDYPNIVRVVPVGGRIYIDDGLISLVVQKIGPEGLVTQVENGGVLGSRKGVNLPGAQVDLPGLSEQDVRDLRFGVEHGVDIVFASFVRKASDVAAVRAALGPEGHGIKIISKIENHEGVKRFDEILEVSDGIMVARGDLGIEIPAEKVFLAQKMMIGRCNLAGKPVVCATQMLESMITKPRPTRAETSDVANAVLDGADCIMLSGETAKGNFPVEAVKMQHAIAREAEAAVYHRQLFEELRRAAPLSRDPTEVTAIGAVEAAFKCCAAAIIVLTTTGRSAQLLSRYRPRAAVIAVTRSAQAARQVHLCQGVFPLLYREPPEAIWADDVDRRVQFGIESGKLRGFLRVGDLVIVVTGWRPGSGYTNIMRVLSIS
The phosphorylation of Adenosine-5′-diphosphate (ADP) by various mutants of PKR was determined by the Kinase Glo Plus Assay (Promega) in the presence or absence of FBP [D-Fructose-1,6-diphosphate; BOC Sciences, CAS: 81028-91-3] as follows. Unless otherwise indicated, all reagents were purchased from Sigma-Aldrich. All reagents were prepared in buffer containing 50 mM Tris-HCl, 100 mM KCl, 5 mM MgCl2, and 0.01% Triton X100, 0.03% BSA, and 1 mM DTT. Enzyme and PEP [Phospho(enol) pyruvic acid] were added at 2× to all wells of an assay-ready plate containing serial dilutions of test compounds or DMSO vehicle. Final enzyme concentrations for PKR(wt), PKR(R510Q), and PKR(G332S) were 0.8 nM, 0.8 nM, and 10 nM respectively. Final PEP concentration was 100 μM. The Enzyme/PEP mixture was incubated with compounds for 30 minutes at RT before the assay was initiated with the addition of 2×ADP [Adenosine-5′-diphosphate] and KinaseGloPlus. Final concentration of ADP was 100 μM. […] For assays containing FBP, that reagent is added at 30 μM upon reaction initiation. Reactions were allowed to progress for 45 minutes at RT until luminescence was recorded by the BMG PHERAstar FS Multilabel Reader. All compounds were tested in triplicate at concentrations ranging from 42.5 μM to 2.2 nM in 0.83% DMSO.
Luminescence values were converted to % Fold increase by normalizing to the average of the DMSO control and multiplying by 100. Max, min, slope and AC50 were determined by the standard four parameter fit algorithm of ActivityBase XE Runner. Compounds were evaluated with three parameters—AC50, MAX % Fold, and % Fold@1.54 μM (FIG. 1). The AC50 value for a compound is the concentration (μM) corresponding to the midway between the maximum and minimum values of the four parameter logistic curve fit (i.e., at which the % fold increase along the four parameter logistic curve fit is halfway between MAX % Fold and MIN % Fold (% Fold Midpoint)), MAX % Fold is the highest fold increase observed at any concentration of compound, and % Fold@1.54 μM is the fold increase at a compound concentration of 1.54 μM. The parameter % Fold@1.54 μM was selected to capture elements of both the AC50 and MAX % Fold and to provide a ranking based on both potency and effect. The compound concentration of 1.54 μM was chosen as one that can optimally differentiate the set of compounds based on the range of activities observed.
As set forth in Table 13 below, AC50 values (columns A, D, G) are defined as follows: ≤0.1 μM (+++); >0.1 μM and ≤1.0 μM (++); >1.0 μM and ≤40 μM (+); >40 μM (0). Max % FOLD values (columns B, E, H) are defined as follows: ≤75% (+); >75% and ≤250% (++); >250% and ≤500% (+++). % Fold@1.54 μM values (columns C, F, J) are defined as follows: ≤75% (+); >75% and ≤250% (++); >250% and ≤50000 (+++).
In general terms: Kinase-Glo measures the ATP left after a reaction by luminescence.

A further assay deals with PKR(wt) (Homo sapiens, UniProt P30613). Kind of assay: Luminescence Biochemical Assay (Kinase Glo Plus), wild type PKR. Particulars: without FBP; for activation at 1.54 µM: 1.54 μM compound, read-out: AC50 LUM KGP woFBP % Fold@1.54 μM mean; for AC50: read-out: AC50 LUM KGP woFBP AC50 μM gmean; for Emax: read-out: AC50 LUM KGP woFBP MAX % FOLD mean.
Chain of PKR(wt) (P30613 whole entry): as the sequence (P30613 whole entry R510Q) above, with Q510R counted along it

Bounds are passed on as bounds.

With `Cc1cc(CNC(=O)N2CC3=C(C2)CN(S(=O)(=O)c2ccc(OC(F)F)cc2)C3)no1` [Example 21-5, 5-[4-(Difluoromethoxy)benzenesulfonyl]-N-[(5-methyl-1,2-oxazol-3-yl)methyl]-1H,2H,3H,4H,5H,6H-pyrrolo[3,4-c]pyrrole-2-carboxamide], at PKR(R510Q), the activation at 1.54 µM is 250 to 50000%, the AC50 lay within 0.1 to 1 µM and the Emax was 250 to 500%. Further, on PKR(wt), the activation at 1.54 µM fell in the range of 250 to 50000%, the concentration at half-maximal activity (AC50) is 0.1 to 1 µM and the Emax lay in the range of 250 to 500%.

As for `O=C(NCc1nccs1)N1CC2=C(C1)CN(S(=O)(=O)c1ccc3ncsc3c1)C2` [Example 21-28, 5-(1,3-Benzothiazole-6-sulfonyl)-N-(1,3-thiazol-2-ylmethyl)-1H,2H,3H,4H,5H,6H-pyrrolo[3,4-c]pyrrole-2-carboxamide], at PKR(R510Q), the activation at 1.54 µM was in the range of 75 to 250%, the AC50 lay within 0.1 to 1 µM and the Emax lay in the range of 75 to 250%. In addition, at PKR(wt), the activation at 1.54 µM was 75 to 250%, the half-maximal activity concentration (AC50) was 0.1 to 1 µM and the Emax lay within 250 to 500%.

`O=C(NCc1ccno1)N1CC2=C(C1)CN(S(=O)(=O)c1ccc3ncsc3c1)C2` [Example 21-27, 5-(1,3-Benzothiazole-6-sulfonyl)-N-(1,2-oxazol-5-ylmethyl)-1H,2H,3H,4H,5H,6H-pyrrolo[3,4-c]pyrrole-2-carboxamide]: at PKR(R510Q), the activation at 1.54 µM is 75 to 250%, the AC50 lay in the range of 1 to 40 µM and the Emax lay in the range of 75 to 250%. Besides, on PKR(wt), the activation at 1.54 µM was in the range of 75 to 250%, the AC50 was 0.1 to 1 µM and the Emax lay within 75 to 250%.

Regarding `O=C(NCc1cnccn1)N1CC2=C(C1)CN(S(=O)(=O)c1ccc3ncsc3c1)C2` [Example 21-30, 5-(1,3-Benzothiazole-6-sulfonyl)-N-(pyrazin-2-ylmethyl)-1H,2H,3H,4H,5H,6H-pyrrolo[3,4-c]pyrrole-2-carboxamide], at PKR(R510Q), the activation at 1.54 µM lay within 75 to 250%, the AC50 is 1 to 40 µM and the Emax was in the range of 250 to 500%. Further, at PKR(wt), the activation at 1.54 µM was 250 to 50000%, the half-maximal activity concentration (AC50) was in the range of 0.1 to 1 µM and the Emax was in the range of 250 to 500%.

On to `N#Cc1ccc(S(=O)(=O)N2CC3=C(CN(C(=O)[C@H](O)c4ccccc4)C3)C2)cc1` [Example 18-45, 4-({5-[(2R)-2-hydroxy-2-phenylacetyl]-1H,2H,3H,4H,5H,6H-pyrrolo[3,4-c]pyrrol-2-yl}sulfonyl)benzonitrile], for which, at PKR(R510Q), the activation at 1.54 µM lay in the range of 75 to 250%, the concentration at half-maximal activity (AC50) was in the range of 0.1 to 1 µM and the Emax lay in the range of 250 to 500%. On PKR(wt), the activation at 1.54 µM fell in the range of 75 to 250%, the concentration at half-maximal activity (AC50) is 0.1 to 1 µM and the Emax was in the range of 75 to 250%.

For `O=C([C@H](O)c1ccccc1)N1CC2=C(C1)CN(S(=O)(=O)c1cccc(C(F)(F)F)c1)C2` [Example 18-49, (2R)-2-hydroxy-2-phenyl-1-{5-[3-(trifluoromethyl)benzenesulfonyl]-1H,2H,3H,4H,5H,6H-pyrrolo[3,4-c]pyrrol-2-yl}ethan-1-one], at PKR(R510Q), the activation at 1.54 µM was in the range of 75 to 250%, the concentration at half-maximal activity (AC50) was 0.1 to 1 µM and the Emax was 75 to 250%. For the same compound, on PKR(wt), the activation at 1.54 µM was in the range of 75 to 250%, the half-maximal activity concentration (AC50) is 0.1 to 1 µM and the Emax is 75 to 250%.

In the case of `Cc1cc(CNC(=O)N2CC3=C(C2)CN(S(=O)(=O)c2ccc(OC(F)F)cc2)C3)on1` [Example 21-6, 5-[4-(Difluoromethoxy)benzenesulfonyl]-N-[(3-methyl-1,2-oxazol-5-yl)methyl]-1H,2H,3H,4H,5H,6H-pyrrolo[3,4-c]pyrrole-2-carboxamide], at PKR(R510Q), the activation at 1.54 µM fell in the range of 250 to 50000%, the concentration at half-maximal activity (AC50) lay within 0.1 to 1 µM and the Emax fell in the range of 250 to 500%. Also, at PKR(wt), the activation at 1.54 µM lay within 250 to 50000%, the AC50 was 0.1 to 1 µM and the Emax was in the range of 250 to 500%.

As to `Cc1cccc(CNC(=O)N2CC3=C(C2)CN(S(=O)(=O)c2ccc4ncsc4c2)C3)n1` [Example 21-32, 5-(1,3-Benzothiazole-6-sulfonyl)-N-[(6-methylpyridin-2-yl)methyl]-1H,2H,3H,4H,5H,6H-pyrrolo[3,4-c]pyrrole-2-carboxamide], on PKR(R510Q), the activation at 1.54 µM lay within 250 to 50000%, the AC50 was in the range of 0.1 to 1 µM and the Emax lay within 250 to 500%. In addition, on PKR(wt), the activation at 1.54 µM was 250 to 50000%, the concentration at half-maximal activity (AC50) is 0.1 to 1 µM and the Emax lay within 250 to 500%.

`Cc1ccc(F)c(S(=O)(=O)N2CC3=C(CN(C(=O)[C@H](O)c4ccccc4)C3)C2)c1` [Example 18-16, (2R)-1-[5-(2-fluoro-5-methylbenzenesulfonyl)-1H,2H,3H,4H,5H,6H-pyrrolo[3,4-c]pyrrol-2-yl]-2-hydroxy-2-phenylethan-1-one]: at PKR(R510Q), the activation at 1.54 µM lay in the range of 250 to 50000%, the AC50 was at most 0.1 µM and the Emax was 250 to 500%. Also, on PKR(wt), the activation at 1.54 µM is 75 to 250%, the AC50 was at most 0.1 µM and the Emax lay in the range of 75 to 250%.

As for `O=C([C@H](O)c1ccccc1)N1CC2=C(C1)CN(S(=O)(=O)c1ccc(Cl)s1)C2` [Example 18-55, (2R)-1-{5-[(5-chlorothiophen-2-yl)sulfonyl]-1H,2H,3H,4H,5H,6H-pyrrolo[3,4-c]pyrrol-2-yl}-2-hydroxy-2-phenylethan-1-one], at PKR(R510Q), the activation at 1.54 µM was in the range of 75 to 250%, the AC50 fell in the range of 0.1 to 1 µM and the Emax lay within 250 to 500%. Moreover, on PKR(wt), the activation at 1.54 µM lay in the range of 75 to 250%, the half-maximal activity concentration (AC50) was in the range of 0.1 to 1 µM and the Emax lay within 75 to 250%.

With `O=C([C@H](O)c1ccccc1)N1CC2=C(C1)CN(S(=O)(=O)c1ccc(Cl)cc1)C2` [Example 18-10, (2R)-1-[5-(4-chlorobenzenesulfonyl)-1H,2H,3H,4H,5H,6H-pyrrolo[3,4-c]pyrrol-2-yl]-2-hydroxy-2-phenylethan-1-one], at PKR(R510Q), the activation at 1.54 µM was 75 to 250%, the AC50 was 1 to 40 µM and the Emax is 250 to 500%. Moreover, at PKR(wt), the activation at 1.54 µM lay within 75 to 250%, the concentration at half-maximal activity (AC50) was in the range of 0.1 to 1 µM and the Emax is 75 to 250%.

As to `O=C(C1OCCc2ccccc21)N1CC2=C(C1)CN(S(=O)(=O)c1ccc(OC(F)F)cc1)C2` (stereo not drawn) [Example 18-33, 2-[4-(Difluoromethoxy)benzenesulfonyl]-5-(3,4-dihydro-1H-2-benzopyran-1-carbonyl)-1H,2H,3H,4H,5H,6H-pyrrolo[3,4-c]pyrrole], on PKR(R510Q), the activation at 1.54 µM lay within 75 to 250%, the half-maximal activity concentration (AC50) was 1 to 40 µM and the Emax fell in the range of 250 to 500%. In addition, on PKR(wt), the activation at 1.54 µM is 75 to 250%, the AC50 lay within 1 to 40 µM and the Emax was in the range of 250 to 500%.

As for `O=C([C@H](O)c1ccccc1)N1CC2=C(C1)CN(S(=O)(=O)c1ccc(C(F)(F)F)cc1)C2` [Example 18-11, (2R)-2-hydroxy-2-phenyl-1-{5-[4-(trifluoromethyl)benzene-sulfonyl]-1H,2H,3H,4H,5H,6H-pyrrolo[3,4-c]pyrrol-2-yl}ethan-1-one], on PKR(R510Q), the activation at 1.54 µM lay in the range of 75 to 250%, the concentration at half-maximal activity (AC50) was 1 to 40 µM and the Emax is 250 to 500%. Besides, on PKR(wt), the activation at 1.54 µM lay within 75 to 250%, the AC50 fell in the range of 0.1 to 1 µM and the Emax lay in the range of 75 to 250%.

As usually defined, the AC50 is the midpoint of the concentration-response curve, whichever way the signal moves.
